# Measured values from patent publication US11028052B2, “Compounds useful as modulators of TRPM8” (Firmenich Incorporated, priority 2013, dated 2021).
# pEC50: −log10 of the molar value.
# Legend:
# [1] = biological target: T1, hTRPM8 (Homo sapiens, UniProt Q7Z2W7); assay: hTRPM8 cell based agonist assay (section 3.1); conditions: for pEC50: mammalian cell line stably expressing TRPM8; for EC50 Ratio (WS3): relative to WS3
# T1 construct: expressed in transfected cells
# Source text: The present compounds are useful as modulators of TRPM8. The activity of TRPM8 can be readily monitored in cell based assays using fluorescent calcium-sensitive dyes, membrane potential dyes, or sodium-sensitive dyes. The activity of TRPM8 can also be monitored with electrophysiological set-ups, such as patch-clamping and two-electrode voltage clamping. A mammalian cell line derivative which stably expresses TRPM8 was used in biological assays in association with testing the present compounds with cool-tasting or -feeling properties (Servant et al. US 2007/0259354 A1 and references cited therein). Typical compound concentrations tested were 50 μM, 20 μM, 10 μM, 5 μM, 2 μM, 1 μM, 0.5 μM, 0.1 μM, 0.05 μM, 0.01 μM, and other concentration points in between. The present compounds have shown strong activity as agonists of hTRPM8. Assay results for compounds are illustrated in Table 1 below. Specifically, the Compounds listed in Table 3.1, i.e., Compounds 3.A1 to Compounds 3.D1 are the specific compounds as described above.
# [2] = tested on: panelists; assay: Sensory studies, cool line scale vs WS-3 (section 2.2); format: in vivo, human; conditions: for Sensory Results: compound concentration compared in cooling with a known concentration of WS-3
# Source text: The results are presented relative to a known concentration of WS-3. A more specific detailed example of the sensory evaluation of selected examples are also presented below. […]
# [3] = biological target: T1, hTRPM8; assay: hTRPM8 cell line agonist assay (section 2.1); format: cell-based; conditions: for pEC50: cell line stably expressing hTRPM8; for EC50 Ratio (WS3): relative to WS3 screened on the same day, greater than one = more potent than WS3
# Procedure: A cell line which stably expresses hTRPM8 was used in biological assays in association with testing the present compounds with cool-tasting or -feeling properties. Typical compound concentrations tested were 100 μM, 50 μM, 10 μM, 1 μM, and 0.5 μM. The present compounds have shown activity as agonists of hTRPM8. Assay results for compounds are illustrated in the table below. EC50 in micromoles (μM) is presented as well as the activity relative to WS3 (an established, commercially available cooling agent). […] A value of 1 indicates the compound is equipotent to WS3 in the assay. […] It is noted that Compounds 2.A1 to 2.S6 in the table below are the Examples described in this application. For example, Compound 2.B 1 is Example 2.2.
# [4] = tested on: panelists; assay: Sensory study, cooling line scale vs WS-3 (section 1.2); format: in vivo, human; conditions: for Average Cooling: 45 μM WS-3 control, 15 point line scale
# Procedure: Three typical sensory studies are described below each followed by a table summarizing sensory results of selected compounds of the invention (Tables 1.2 to 1.4).
# (§1) All samples made with Low Sodium Buffer (LSB) pH ˜7.1 and contain 0.1% ethanol.
# (§2) Compounds are rated on a 15 point line scale where 45 μM WS-3 (N-Ethyl-p-menthane-3-carboxamide) is ranked as a 5 in cool intensity. In most cases our compounds are tested to determine at what concentration the cooling intensity is equivalent to 45 μM WS-3. In each test, the panelist is presented with a 0 μM control sample, a 45 μM WS-3 control sample and the experimental compound sample and asked to rate the cooling intensity of each sample. Panelists are also asked to rate bitterness. In the table below there was no significant bitterness detected unless otherwise noted. Also, in the table below, n represents the number of tests completed for a given experiment (#panelists×#repetitions).
# [5] = tested on: panelists; assay: Sensory study, cool line scale test vs WS-3 (section 3.2); format: in vivo, human; conditions: for Average Cooling: Table 3.2, n = 30
# Procedure: Two typical sensory studies are described below each followed by a table summarizing sensory results of selected compounds of the invention (Tables 3.2 and 3.3).
# as §1
# as §2, with “The test is a cool line scale test with timed 30 seconds interval. Compounds” for “Compounds”, “intensity. The present compound was” for “intensity. In most cases our compounds are”, “panelist was” for “panelist is”, “Panelists were” for “Panelists are”
# T1 sequence (Q7Z2W7 whole entry): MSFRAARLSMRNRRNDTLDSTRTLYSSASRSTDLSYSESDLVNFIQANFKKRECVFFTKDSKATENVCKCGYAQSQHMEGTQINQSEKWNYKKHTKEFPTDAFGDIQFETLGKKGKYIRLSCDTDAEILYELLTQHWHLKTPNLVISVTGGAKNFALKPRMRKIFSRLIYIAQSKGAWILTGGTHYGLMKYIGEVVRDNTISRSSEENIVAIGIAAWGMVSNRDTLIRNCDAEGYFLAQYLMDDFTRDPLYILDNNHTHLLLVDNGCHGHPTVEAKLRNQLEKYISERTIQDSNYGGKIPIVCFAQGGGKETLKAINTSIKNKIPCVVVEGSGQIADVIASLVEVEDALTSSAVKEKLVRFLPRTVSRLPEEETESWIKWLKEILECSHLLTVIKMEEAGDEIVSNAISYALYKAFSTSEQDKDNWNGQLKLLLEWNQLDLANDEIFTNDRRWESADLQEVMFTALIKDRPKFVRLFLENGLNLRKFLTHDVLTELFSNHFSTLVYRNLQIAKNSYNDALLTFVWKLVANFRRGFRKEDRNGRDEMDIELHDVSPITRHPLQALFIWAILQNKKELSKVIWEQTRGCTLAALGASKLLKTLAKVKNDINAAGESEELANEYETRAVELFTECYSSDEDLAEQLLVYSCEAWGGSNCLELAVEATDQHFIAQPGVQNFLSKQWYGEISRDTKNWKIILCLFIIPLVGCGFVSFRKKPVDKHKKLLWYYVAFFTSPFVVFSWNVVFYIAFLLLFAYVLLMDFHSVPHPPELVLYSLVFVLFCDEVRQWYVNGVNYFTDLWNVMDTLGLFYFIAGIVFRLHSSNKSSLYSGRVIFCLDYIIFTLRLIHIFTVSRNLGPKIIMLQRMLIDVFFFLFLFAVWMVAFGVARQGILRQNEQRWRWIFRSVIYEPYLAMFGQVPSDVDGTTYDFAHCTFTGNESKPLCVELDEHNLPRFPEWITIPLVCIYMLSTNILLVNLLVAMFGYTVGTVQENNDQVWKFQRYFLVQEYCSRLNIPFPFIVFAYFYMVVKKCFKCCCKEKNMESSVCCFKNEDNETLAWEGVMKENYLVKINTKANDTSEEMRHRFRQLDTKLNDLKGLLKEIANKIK
SMILES,pEC50 [1],EC50 Ratio (WS3) [1],pEC50 [3],EC50 Ratio (WS3) [3],also measured
CC(C)(C(=O)NCC(=O)c1cccc(F)c1)C1CCCCC1 [Example 3.B7],6.59,18.6,,,
CN1C(=O)N(CC(=O)c2cccnc2)C(=O)C(C)(C2=CCCCC2)C1=O (centres unmarked),,,,,melting point: 109 to 111 °C
CC1CCCC1C1(C)C(=O)N(CC(=O)c2cccc(O)c2)C(=O)N1C (mixture of isomers) [Compound 2.G3],,,6.84,32.6,Sensory Results [2]: 15 uM < 45 uM WS-3
CC(C(=O)N(C)CC(=O)c1ccccc1)c1ccccc1 (centres unmarked) [Example 3.D6],5.63,3.9,,,
"CN1C(=O)N(CC(=O)c2ccccc2)C(=O)C1(C)C1CC2CCC1CC2 (single isomer, unassigned) [Compound 2.A3]",,,7.00,73.1,
CC(C)(C(=O)NCC(=O)c1ccc(O)cc1)C1CCCCC1 [Example 3.C5],6.30,9.4,,,
CN1C(=O)N(CC(=O)c2cccnc2)C(=O)C1(C)CCc1ccccc1 (centres unmarked) [Compound 2.U5],,,5.43,0.9,
CC(C(=O)NCC(=O)c1ccccc1)C1CC2CCC1C2 (centres unmarked) [Example 3.F9],5.47,1.0,,,
"CN1CC(C)(C2CCCCC2)C(=O)N(CC(=O)c2cccnc2)C1=O (centres unmarked) [Example 2.2, 5-cyclohexyl-1,5-dimethyl-3-(2-oxo-2-(pyridin-3-yl)ethyl)dihydropyrimidine-2,4(1H,3H)-dione]",,,6.43,13.5,
CC(C(=O)N(C)CC(=O)c1cccs1)C1CCCCC1 (centres unmarked) [Example 3.A10],7.23,62.5,,,
CC(C(=O)N(C)CC(=O)c1cc(O)cc(O)c1)C1CCCCC1 (centres unmarked) [Example 3.A3],7.55,221.2,,,
CC(C)(C(=O)NCC(O)c1ccccc1)C1CCCCC1 (centres unmarked) [Example 3.F8],5.38,1.1,,,
CN1C(=O)N(CC(=O)c2ccc[nH]2)C(=O)C1(C)C1CCCCC1 (centres unmarked) [Compound 2.J3],,,6.78,32.1,Sensory Results [2]: 15 uM~45 uM WS-3
"CCNC(=O)C1CC(C)CCC1C(C)C (centres unmarked) [WS-3, N-Ethyl-p-menthane-3-carboxamide, reference compound]",,,,,"Average Cooling ([4]; Table 1.2, n = 30): 4.4; Average Cooling ([4]; Table 1.3, n = 28): 5.4; Average Cooling ([4]; Table 1.4, n = 28): 4.1; Cool intensity compared with LSB (line scale conclusion) ([2]; 60 μM in LSB at pH 7.1): significantly higher in cool intensity than LSB; Ave Cool ([2]; Table 2.1, 60 μM WS-3, n = 10): 3.7; Average Cooling ([5]; 45 μM WS-3 control): 4.5"
CN1C(=O)N(CC(=O)c2ccccc2)C(=O)C(C)(C2=CCCCC2)C1=O (centres unmarked) [Compound 2.M3],,,6.72,240.6,
C[C@H](C(=O)NNC(=O)c1ccccc1)C1CCCCC1 [Example 3.G1],5.20,1.0,,,
CN1C(=O)N(CC(=O)c2ccc(O)cc2)C(=O)C1(C)C1CCCCC1 (centres unmarked) [Compound 2.D3],,,6.91,33.4,
CN1C(=O)N(CC(=O)c2ccccc2)C(=O)C1(C)C1=CCCCC1 (centres unmarked) [Compound 2.F3],,,6.86,44.0,
Cc1cccc(C(C)C(=O)N(C)CC(=O)c2ccccc2)c1 (centres unmarked) [Example 3.E6],5.35,2.5,,,

SMILES,pEC50 [1],EC50 Ratio (WS3) [1],pEC50 [3],EC50 Ratio (WS3) [3],also measured
CN1CC(C)(C2=CCCCC2)CN(CC(=O)c2ccccc2)C1=O (centres unmarked) [Compound 2.F1],,,5.54,1.6,
CC1CCCC1C1(C)C(=O)N(CC(=O)c2ccc[nH]2)C(=O)N1C (centres unmarked) [Compound 2.N3],,,6.69,24.1,Sensory Results [2]: 15 uM < 45 uM WS-3
"C[C@H](C(=O)N(C)CC(=O)c1ccccc1)C1CCCCC1 [Example 3.2, (S)-2-Cyclohexyl-N-methyl-N-(2-oxo-2-phenylethyl)propanamide]",,,,,"Cooling compared with 0 μM and 45 μM WS-3 (panel conclusion) ([5]; 5 μM): significantly more cooling than 0 μM WS-3 (p<0.05) and not significantly different in cooling than 45 μM WS-3; Average Cooling ([5]; 5 μM, 15 point line scale): 4.0"
"CN1C(=O)N(CC(=O)c2ccc[nH]2)C(=O)C1(C)C1CC2CCC1C2 (single isomer, unassigned) [Compound 2.O3]",,,6.65,21.6,
C[C@H](C(=O)N(C)CC(=O)c1ccsc1)C1CCCCC1 [Example 3.A4],7.39,132.4,,,
CN1CC(C)(C2=CCCCC2)C(=O)N(CC(=O)c2ccccc2)C1=O (centres unmarked) [Compound 2.A1],,,6.87,54.6,Sensory Results [2]: 10 uM < 45 uM WS-3
CN1C(=O)N(CC(=O)c2ccccc2)C(=O)C1(C)C1CC2CCC1CC2 (centres unmarked) [Compound 2.I3],,,6.79,33.8,
CC1CCCC1C1(C)C(=O)N(CC(=O)c2ccccc2)C(=O)N1C (mixture of isomers) [Compound 2.L3],,,6.74,25.9,
CN1C(=O)N(CC(=O)c2cccc(O)c2)C(=O)C1(C)C1CC2CCC1C2 (centres unmarked) [Compound 2.C3],,,7.00,49.1,
CC(C)(C(=O)NCC(=O)c1cccnc1)C1CCCCC1 [Example 3.B4],6.64,26.5,,,
CN(CC(=O)c1ccc(F)cc1)C(=O)C(C)(C)C1CCCCC1 [Example 3.E7],5.67,1.9,,,
CN1C(=O)N(CC(=O)c2ccccc2)C(=O)C1(C)C1CC2C=CC1CC2 (centres unmarked) [Compound 2.E3],,,6.90,53.5,
"CN1C(=O)N(CC(=O)c2cccc(O)c2)C(=O)C1(C)C1CC2CCC1C2 (single isomer, unassigned) [Compound 2.B3]",,,,2810.1,
CC(C(=O)N(C)CC(=O)c1cccc(O)c1)C1CCCCC1 (centres unmarked) [Example 3.A1],7.89,581.6,,,
CN1C(=O)N(CC(=O)c2cccnc2)C(=O)C1(C)C1CCCCC1 (centres unmarked) [Compound 2.K3],,,6.76,30.1,Sensory Results [2]: 30 uM~45 uM WS-3
CC(C)(C(=O)NCC(=O)c1cc(O)cc(O)c1)C1CCCCC1 [Example 3.A9],7.06,66.5,,,
CC1=NN(CC(=O)c2ccccc2)C(=O)C1(C)C1CCCCC1 (centres unmarked) [Example A1],,,,,Cooling compared with 0 μM and 45 μM WS-3 (panel conclusion) ([4]; 5 μM): significantly more cooling than 0 μM WS-3 (p<0.05) and not significantly different in cooling than 45 μM WS-3
CC(C(=O)N(C)CC(=O)c1ccccc1)C1CCCCC1 (centres unmarked) [Example 3.A2],8.00,577.8,,,
CCN1C(=O)N(CC(=O)c2ccccc2)C(=O)C1(C)C1CCCCC1 (centres unmarked) [Compound 2.P3],,,6.64,38.1,Sensory Results [2]: 15 uM < 45 uM WS-3
